Data taken from patent US8962844B2, “1,3,4-oxadiazole and 1,3,4-thiadiazole β-lactamase inhibitors” (priority 2012, dated 2015).
Where a name gives a salt, the structure may show the parent alone.

Experiments:
[1] = test system: bacterial strains that express the class D cephalosporinase OXA-15; test: Standard BLI potentiation MIC / synergy MIC (sMIC) assays run in the presence of a β-lactam, OXA-15 expressing strains; type: cell-based, E. coli; settings: BLI in combination with a β-lactam; comparison with Avibactam (comparator compound CCC)
Summary of the method: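 Isogenic E. coli DH10B carrying cloned β-lactamase genes on pBR322-derived plasmid (blaTEM-1 promoter, tetracycline 25 μg/mL) tested by CLSI broth microdilution in CAMHB. Test compound and β-lactam each diluted and combined; MIC reported in presence of β-lactam.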

[2] = test system: bacterial strains that express KPC β-lactamases; test: Standard BLI potentiation MIC / synergy MIC (sMIC) assays run in the presence of a β-lactam, KPC expressing strains; type: cell-based; settings: more active for at least one KPC strain and/or better spectrum of activity than Avibactam; BLI in combination with a β-lactam
Excerpt: Unless otherwise indicated, the activity of the BLI compounds can be described by the MIC value obtained from a Synergy MIC assay or a BLI potentiation assay (e.g as described herein), both of which are run in the presence of a β-lactam.
A set of β-lactamase expressing isogenic E. coli strains was constructed by cloning a β-lactamase gene into a customized derivative of pBR322 (GenBank Accession Number J01749) and transforming the engineered plasmids into E. coli. The NdeI restriction site within the plasmid backbone of pBR322 was removed to generate pBR322 ΔNdeI. The pBR322 ΔNdeI vector itself, minus the blaTEM-1 gene, was amplified using two primers: (1) pBR-Pbla 5′-cgcatatgactettectttttcaatattattg-3, SEQ ID 1, a primer with an engineered NdeI restriction site at the 3′ end of the blaTEM-1 promoter and (2) pBR-vec-1 5′-[…]-3′, SEQ ID 2, a primer with an engineered BamHI restriction site at the 3′ end of the blaTEM-1 open reading frame. The chloramphenicol resistance gene, cat, was generated by PCR amplification from pKD3 (GenBank Accession Number AY048742) using primers with an engineered NdeI restriction site at the 5′ end (Pbla-cat 5′-[…]-3′, SEQ ID 3) and an engineered BamHI restriction site at the 3′ end (Vec-1-cat 5′-[…]-3′, SEQ ID 4) of the resistance gene. The two PCR products, pBR322 ΔNdeI and cat were ligated together generating pBR-CBST (pBR322 ΔNdeI ΔTEM-1::cat Seq. ID 5) which retains both the pBR322 tetracycline resistance cassette, tetA, and the plasmid origin of replication but the blaTEM-1 gene was replaced by the cat gene.
Using this engineering strategy a number of plasmids producing β-lactamase genes from different classes (see below) were generated using synthetic genes with an engineered NdeI restriction site at the 5′ end and BamHI restriction site at the 3′ end of each gene (GenScript). Both the synthetic β-lactamase genes and cat gene were ligated into the NdeI/BamHI sites of the pBR322 ΔNdeI PCR product and transformed into electrocompetent E. coli ElectroMax DH10B (Invitrogen/Life Technologies). E. coli DH10B harboring the recombinant plasmids were selected on LB agar (supplemented with 25 μg/mL tetracycline) and single isolated colonies were then inoculated into 5 mL LB media (supplemented with 25 μg/mL tetracycline), and incubated at 37° C. with aeration (250 rpm) for 18 hrs. The cultures were frozen back at −80° C. in 20% glycerol. The DNA sequence of the cloned β-lactamase genes was confirmed. The β-lactamase gene expression in the recombinant E. coli strains was driven by the blaTEM-1 promoter in the pBR-CBST plasmid and was characterized by MIC profiling of the E. coli recombinant strains against comparator β-lactam/BLI combinations in broth microdilution assay.
The experimental protocol was performed according to Clinical and Laboratory Standards Institute (CLSI) guidelines with modifications as described below (CLSI guidelines can be derived from the CLSI document M07-A9 published in January 2012: “Methods for Dilution Antimicrobial Susceptibility Tests for Bacteria That Grow Aerobically; Approved Standard-Ninth Edition”).
To prepare for MIC testing, frozen glycerol stocks of clinical isolates (Klebsiella pneumoniae, Eschericia coli, Enterobacter spp, Citrobacter spp, or Pseudomonas aeruginosa) were used to streak for isolated colonies on rich, non-selective, tryptic soy agar containing 5% sheep's blood (TSAB). Frozen glycerol stocks of laboratory engineered, isogenic E. coli strains, which contain cloned β-lactamase expressing plasmids were used to streak for isolated colonies on rich, selective LB agar supplemented with 25 μg/mL tetracycline to maintain the plasmid. All strains were incubated at 37° C. for 18-24 hrs.
On the day of testing, primary cultures were started by scraping off 5-10 colonies from the TSAB plates containing clinical strains or the tetracycline supplemented LB plates containing engineered strains. […]

| SMILES | activity against bacterial strains that express the class D cephalosporinase OXA-15, compared with Avibactam [1] | activity and/or spectrum of activity against bacterial strains that express KPC β-lactamases, compared with Avibactam [2] |
| --- | --- | --- |
| O=C1N2C[C@@H](CC[C@H]2c2nnc(CCC3CNC3)o2)N1OS(=O)(=O)O [Compound 742, (2S,5R)-2-(5-(2-(azetidin-3-yl)ethyl)-1,3,4-oxadiazol-2-yl)-7-oxo-1,6-diazabicyclo[3.2.1]octan-6-yl hydrogen sulfate] | more active than Avibactam | more active than Avibactam |
| O=C1N2C[C@@H](CC[C@H]2c2nnc(CCCC3CNC3)o2)N1OS(=O)(=O)O [Compound 743, (2S,5R)-2-(5-(3-(azetidin-3-yl)propyl)-1,3,4-oxadiazol-2-yl)-7-oxo-1,6-diazabicyclo[3.2.1]octan-6-yl hydrogen sulfate] | more active than Avibactam | more active than Avibactam |
| O=C1N2C[C@@H](CC[C@H]2c2nnc(COC3CNC3)o2)N1OS(=O)(=O)O [Compound 744, (2S,5R)-2-(5-((azetidin-3-yloxy)methyl)-1,3,4-oxadiazol-2-yl)-7-oxo-1,6-diazabicyclo[3.2.1]octan-6-yl hydrogen sulfate] | more active than Avibactam | more active than Avibactam |
| O=C1N2C[C@@H](CC[C@H]2c2nnc(CCNC3CNC3)o2)N1OS(=O)(=O)O [Compound 745, (2S,5R)-2-(5-(2-(azetidin-3-ylamino)ethyl)-1,3,4-oxadiazol-2-yl)-7-oxo-1,6-diazabicyclo[3.2.1]octan-6-yl hydrogen sulfate] | more active than Avibactam | more active than Avibactam |
| N=C(N)N1CC(NCc2nnc([C@@H]3CC[C@@H]4CN3C(=O)N4OS(=O)(=O)O)o2)C1 [Compound 746, (2S,5R)-2-(5-(((1-carbamimidoylazetidin-3-yl)amino)methyl)-1,3,4-oxadiazol-2-yl)-7-oxo-1,6-diazabicyclo[3.2.1]octan-6-yl hydrogen sulfate] | more active than Avibactam | more active than Avibactam |
| N=C(N)N[C@H]1C[C@@H](c2nnc([C@@H]3CC[C@@H]4CN3C(=O)N4OS(=O)(=O)O)o2)C1 [Compound 749, (2S,5R)-2-(5-((1s,3R)-3-guanidinocyclobutyl)-1,3,4-oxadiazol-2-yl)-7-oxo-1,6-diazabicyclo[3.2.1]octan-6-yl hydrogen sulfate] | more active than Avibactam | more active than Avibactam |
| O=C1N2C[C@@H](CC[C@H]2c2nnc(C3CC4(CNC4)C3)o2)N1OS(=O)(=O)O [Compound 750, (2S,5R)-2-(5-(2-azaspiro[3,3]heptan-6-yl)-1,3,4-oxadiazol-2-yl)-7-oxo-1,6-diazabicyclo[3.2.1]octan-6-yl hydrogen sulfate] | more active than Avibactam | more active than Avibactam |
| N[C@H]1C[C@H](Cc2nnc([C@@H]3CC[C@@H]4CN3C(=O)N4OS(=O)(=O)O)o2)C1 [Compound 751, (2S,5R)-2-(5-(((1r,3S)-3-aminocyclobutyl)methyl)-1,3,4-oxadiazol-2-yl)-7-oxo-1,6-diazabicyclo[3.2.1]octan-6-yl hydrogen sulfate] | more active than Avibactam | more active than Avibactam |
| N=C(N)NC1CC(Cc2nnc([C@@H]3CC[C@@H]4CN3C(=O)N4OS(=O)(=O)O)o2)C1 (stereo partly drawn) [Compound 752, (2S,5R)-2-(5-((3-guanidinocyclobutyl)methyl)-1,3,4-oxadiazol-2-yl)-7-oxo-1,6-diazabicyclo[3.2.1]octan-6-yl hydrogen sulfate] | more active than Avibactam | more active than Avibactam |
| N[C@H]1C[C@H](CCc2nnc([C@@H]3CC[C@@H]4CN3C(=O)N4OS(=O)(=O)O)o2)C1 [Compound 753, (2S,5R)-2-(5-(2-((1r,3R)-3-aminocyclobutyl)ethyl)-1,3,4-oxadiazol-2-yl)-7-oxo-1,6-diazabicyclo[3.2.1]octan-6-yl hydrogen sulfate] | more active than Avibactam | more active than Avibactam |
| N[C@H]1C[C@@H](CCc2nnc([C@@H]3CC[C@@H]4CN3C(=O)N4OS(=O)(=O)O)o2)C1 [Compound 754, (2S,5R)-2-(5-(2-((1s,3S)-3-aminocyclobutyl)ethyl)-1,3,4-oxadiazol-2-yl)-7-oxo-1,6-diazabicyclo[3.2.1]octan-6-yl hydrogen sulfate] | more active than Avibactam | more active than Avibactam |
| NC1CC(NCc2nnc([C@@H]3CC[C@@H]4CN3C(=O)N4OS(=O)(=O)O)o2)C1 (stereo partly drawn) [Compound 755, (2S,5R)-2-(5-(((3-aminocyclobutyl)amino)methyl)-1,3,4-oxadiazol-2-yl)-7-oxo-1,6-diazabicyclo[3.2.1]octan-6-yl hydrogen sulfate] | more active than Avibactam | more active than Avibactam |
| N[C@H]1C[C@@H](NCc2nnc([C@@H]3CC[C@@H]4CN3C(=O)N4OS(=O)(=O)O)o2)C1 [Compound 756, (2S,5R)-2-(5-((((1s,3R)-3-aminocyclobutyl)amino)methyl)-1,3,4-oxadiazol-2-yl)-7-oxo-1,6-diazabicyclo[3.2.1]octan-6-yl hydrogen sulfate] | more active than Avibactam | more active than Avibactam |
| O=C1N2C[C@@H](CC[C@H]2c2nnc([C@H]3CCNC3)o2)N1OS(=O)(=O)O [Compound 758, (2S,5R)-7-oxo-2-(5-((S)-pyrrolidin-3-yl)-1,3,4-oxadiazol-2-yl)-1,6-diazabicyclo[3.2.1]octan-6-yl hydrogen sulfate] | more active than Avibactam | more active than Avibactam |
| O=C1N2C[C@@H](CC[C@H]2c2nnc([C@@H]3CCNC3)o2)N1OS(=O)(=O)O [Compound 759, (2S,5R)-7-oxo-2-(5-((R)-pyrrolidin-3-yl)-1,3,4-oxadiazol-2-yl)-1,6-diazabicyclo[3.2.1]octan-6-yl hydrogen sulfate] | more active than Avibactam | more active than Avibactam |
